{"source": "paper PMC11997985", "about": "“Synthesis and In Vitro Profiling of Psilocin Derivatives: Improved Stability and Synthetic Properties” (Journal of Medicinal Chemistry, 2025)", "key": {"[1]": {"experiment": "Co-factor experiment: microsome suspension with and without NADPH", "type": "in vitro ADME, human", "settings": "for Co-factor experiment: degradation with and without addition of NADPH compared", "method": "Therefore, additional experiments comparing stability with and without the addition of NADPH cofactor and a very short incubation period were performed (Tables S4 and S5). […] Due to the rapid observed degradation in microsomes, we decided to investigate the stability of five compounds in human plasma, aiming for a broad range of stabilities (Table 2, Table S6). It should be noted that esterase-labile compounds are notoriously difficult to study in microsomal stability studies.[36]\nTable S3 Evaluation of metabolic stability in human microsomes\nNo. Metabolic stability Comment\n4k <10/<10 Low retention in chromatography\n8 <10/<10 Low retention in chromatography.\nTable S4 Results from the modified microsome assay where degradation with and without the addition of NADPH was compared […]\n4d Very low peak area for the first time point,\n4e Very low peak area for the first time point,\n4f Very low peak area for the first time point,\n5 Very low peak area for the first time point,\n8 No degradation without co -factor […]\nmetabolism by the microsomes (consisting mainly of cytochrome P450 enzymes) or if it was due to other factors, the compounds (with the exception of 4k) were incubated in the microsome suspension both with and without the addition of NADPH. Samples […]\n(§1) were taken at three timepoints, and the degradation was compared to determine if it was dependent on NADPH. Compound 4k […]\n(§2) without the addition of NADPH. […]\n(§3) microsomes that need to be activated by a co -factor.\n(§4) Table S5 Percent of peak area found in microsome suspension 15 seconds after the addition of NADPH in comparison with the same amount dissolved in H2O/EtOH\n(§5) No. Area at 0.25 min. in Area in solution % found in microsomes/NADPH (125 nM) microsome\n(§6) Comparison with compounds in solution. A comparison was made between the peak area of the compounds in solution with that obtained in the microsome suspension directly after the addition of NADPH (about 0.25 minutes) (Table S5). Before the addition of NADPH, the compounds are equilibrated in the microsome suspension for approximately five minutes. All compounds were prepared in solution by diluting a portion of the DMSO solutions with H2O/EtOH (75:25) to 125 nM (the final concentration of compounds for analysis in the microsome assay).\n(§7) For the compounds where no results from the microsome assay could be reported due to low peak area (4d, 4e, 4f & 5), less than one percent of the expected peak area as compared with the area in solution was detected. […]\n(§8) degrade rapidly before the addition of the co-factor after five minutes in incubation. For compounds 4g, 4h, 4i & 4j, which were […]\n(§9) higher relative peak areas were found. […]\n(§10) without NADPH was only found at 15% of the area seen in solution in the microsome suspension."}, "[2]": {"experiment": "Peak area in microsome suspension compared with compounds in solution", "type": "in vitro ADME, human", "settings": "peak area 15 seconds after addition of NADPH versus same amount (125 nM) in H2O/EtOH", "method": "as §1, §2, §3, §4, §5, §6, §7, §8, §9, §10"}, "[3]": {"experiment": "Solubility, screen method, phosphate buffer pH 7.4, 1% DMSO", "type": "physicochemical", "settings": "phosphate buffer with 1% DMSO; 100 mM phosphate buffer pH 7.4, 1% DMSO; assay range 0.1 to 100 μM"}, "[4]": {"experiment": "Metabolic stability in human microsomes", "type": "in vitro ADME", "settings": "for Metabolic stability in human microsomes: 37 °C, 0.5 mg/mL protein, 1 μM compound, 1 mM NADPH; for Comment on microsome assay: Table S3"}, "[5]": {"experiment": "Stability in simulated stomach acid (0.10 M HCl)", "settings": "0.10 M HCl (simulated stomach acid)"}, "[6]": {"experiment": "Chemical stability in 1.0 M NaHCO3 and 1.0 M HCl"}, "[7]": {"settings": "cited from earlier work"}}, "note": "“And” between values parts separate entries of the source, which are not always exact repeats. Identical values can stand only once. Marks after values point to notes of the source that are not given here."}
{"smiles": "CCCC(=O)Oc1cccc2[nH]cc(CCN(C)C)c12.O=C(O)/C=C/C(=O)O", "note": "[Compound 4b]", "values": [{"measurement": "Co-factor experiment", "setting": "[1]", "value": "No degradation without co-factor"}, {"measurement": "% found in microsome suspension", "setting": "[2]", "value": 0.3, "unit": "%"}, {"measurement": "solubility", "setting": "[3]", "value": 87, "unit": "µM"}, {"measurement": "Metabolic stability in human microsomes", "setting": "[4]", "value": ">200^a μL/min/mg protein and >200 μL/min/mg protein"}, {"measurement": "Comment on microsome assay", "setting": "[4]", "value": "Rapid degradation"}, {"measurement": "half-life at 5 mM", "setting": "[5]", "value": "> 167", "unit": "h"}, {"measurement": "half-life at 24 h, 5 mM", "setting": "[6]; 1.0 M HCl", "value": 15, "unit": "h"}, {"measurement": "half-life at 24 h, 5 mM", "setting": "[6]; 1.0 M NaHCO3", "value": 65, "unit": "h"}]}
{"smiles": "CCCCC(=O)Oc1cccc2[nH]cc(CCN(C)C)c12.O=C(O)/C=C/C(=O)O", "note": "[Compound 4c]", "values": [{"measurement": "Co-factor experiment", "setting": "[1]", "value": "No degradation without co-factor"}, {"measurement": "% found in microsome suspension", "setting": "[2]", "value": 0.2, "unit": "%"}, {"measurement": "solubility", "setting": "[3]", "value": 87, "unit": "µM"}, {"measurement": "Metabolic stability in human microsomes", "setting": "[4]", "value": ">200^a μL/min/mg protein and >200 μL/min/mg protein"}, {"measurement": "Comment on microsome assay", "setting": "[4]", "value": "Rapid degradation"}, {"measurement": "half-life at 5 mM", "setting": "[5]", "value": "> 167", "unit": "h"}, {"measurement": "half-life at 24 h, 5 mM", "setting": "[6]; 1.0 M HCl", "value": 13.3, "unit": "h"}, {"measurement": "half-life at 24 h, 5 mM", "setting": "[6]; 1.0 M NaHCO3", "value": 50, "unit": "h"}]}
{"smiles": "CN(C)CCc1c[nH]c2cccc(OC(=O)c3ccccc3)c12.O=C(O)/C=C/C(=O)O", "note": "[Compound 4h]", "values": [{"measurement": "Co-factor experiment", "setting": "[1]", "value": "Degradation without co-factor"}, {"measurement": "microsomal CLint", "setting": "[1]; human, human microsome suspension, both with and without the addition of NADPH, read-out: intrinsic clearance", "value": "> 200", "unit": "µL/min/mg"}, {"measurement": "% found in microsome suspension", "setting": "[2]", "value": 44, "unit": "%"}, {"measurement": "solubility", "setting": "[3]", "value": "> 90", "unit": "µM"}, {"measurement": "Metabolic stability in human microsomes", "setting": "[4]", "value": ">200^a μL/min/mg protein and >200 μL/min/mg protein"}, {"measurement": "Comment on microsome assay", "setting": "[4]", "value": "Rapid degradation"}, {"measurement": "half-life at 5 mM", "setting": "[5]", "value": "> 167", "unit": "h"}, {"measurement": "half-life at 5 mM", "setting": "[6]; 1.0 M HCl", "value": "> 167", "unit": "h"}, {"measurement": "half-life at 24 h, 5 mM", "setting": "[6]; 1.0 M NaHCO3", "value": 150, "unit": "h"}]}
{"smiles": "CN(C)CCc1c[nH]c2cccc(OS(=O)(=O)O)c12", "note": "[Compound 6]", "values": [{"measurement": "Co-factor experiment", "setting": "[1]", "value": "No degradation without co-factor"}, {"measurement": "% found in microsome suspension", "setting": "[2]", "value": 15, "unit": "%"}, {"measurement": "solubility", "setting": "[3]", "value": "> 90", "unit": "µM"}, {"measurement": "Metabolic stability in human microsomes", "setting": "[4]", "value": ">200", "unit": "μL/min/mg protein"}, {"measurement": "Comment on microsome assay", "setting": "[4]", "value": "Rapid degradation"}, {"measurement": "half-life at 5 mM", "setting": "[5]", "value": "> 167", "unit": "h"}, {"measurement": "half-life at 5 mM", "setting": "[6]; 1.0 M HCl", "value": "> 167", "unit": "h"}, {"measurement": "half-life at 5 mM", "setting": "[6]; 1.0 M NaHCO3", "value": "> 167", "unit": "h"}]}
{"smiles": "CN(C)CCc1c[nH]c2cccc(O)c12", "note": "[psilocin freebase, 4-hydroxy-N,N-dimethyltryptamine]", "values": [{"measurement": "degradation of psilocin under UV radiation", "setting": "[7]; 254 nm, in EtOH, after 1.75 h", "value": 9, "unit": "%"}, {"measurement": "degradation of psilocin in NaOH solution", "setting": "[7]; NaOH solution (1 M), after 2 h, ref 46 (Barrow et al.)", "value": 60, "unit": "%"}, {"measurement": "degradation of psilocin in oxidative conditions", "setting": "[7]; oxidative conditions", "value": "complete degradation after only two hours"}]}
